Laboratory results as given in patent publication US11590139B2, “Substituted aminopurine compounds, compositions thereof, and methods of treatment therewith” (Signal Pharmaceuticals, LLC, priority 2014, dated 2023).

The molecules below were run on Lox-IMVI melanoma cell line (assay: Lox-IMVI anti-proliferative assay (growth inhibition, Cell Titer-Glo)). Conditions: Homo sapiens; IC50 activity level in the cell-based Lox-IMVI anti-proliferative assay; read-out: Activity.
Assay type: cell-based, human
Procedure: Determination of the Growth Inhibitory Effect of Aminopurine Compounds. The Lox-IMVI melanoma cell line (Source: NCI-DCTD, catalog No. 0507283) was maintained and tested in RPMI+10% FBS. The seeding density for the cell line was optimized to ensure assay linearity in 384-well plates.
Increasing concentrations of Aminopurine Compound (0.5 nM to 10 μM) were spotted in a 10-point serial dilution fashion (3-fold dilution) in duplicate within the plate via an acoustic dispenser (EDC ATS-100) into an empty 384-well plate. The dimethyl sulfoxide (DMSO) concentration was kept constant for a final assay concentration of 0.2% DMSO. Prior to testing, cells were grown and expanded in culture flasks to provide sufficient amounts of starting material. Cells were then diluted to their desired densities and added directly to the compound-spotted 384-well plates. Cells were allowed to grow for 72 hours in 5% CO2 at 37° C. At the time when exposure of cells to compound began (t0), initial cell number was assessed via a viability assay (Cell Titer-Glo) by quantifying the level of luminescence generated by adenosine-5′-triphosphate (ATP) present in viable cells. After 72 hours, cell viability of compound-treated cells was assessed via Cell Titer-Glo Luminescent Cell Viability Assay (Promega Corporation, Madison, Wis.) and read for luminescence.
All data was normalized and represented as a percentage of the DMSO-treated control cells after 72 h. Results were expressed as a IC50 value, which is the compound concentration required to inhibit 50% of the untreated control cells during the 72 hours of treatment.
A Four Parameter Logistic Model (Sigmoidal Dose-Response Model) was used to determine the compound's IC50. y=(A+((B−A)/(1+((C/x)^D))))
wherein: • A=YMin • B=YMax • C=EC50 • D=Hill Slope • IC50 is the compound concentration when Y=50% of DMSO control • Y=Luminescence unit
All inhibition curves were processed and evaluated using XLFit and Activity Base (IDBS).

Molecule	IC50
CC[C@@H](CO)Nc1ncc2nc(Nc3c(F)cc(F)cc3F)n([C@H]3CC[C@@H](C(N)=O)CC3)c2n1 [Example 143, (1R,4s)-4-(2-((S)-1-hydroxybutan-2-ylamino)-8-(2,4,6-trifluorophenylamino)-9H-purin-9-yl)cyclohexanecarboxamide]	> 1000 nM
CS(=O)(=O)N1CCC(Nc2ncc3nc(Nc4c(Cl)cccc4Cl)n([C@H]4CC[C@@H](C(N)=O)CC4)c3n2)CC1 [Example 293, (1s,4s)-4-(8-(2,6-dichlorophenylamino)-2-(1-(methylsulfonyl)piperidin-4-ylamino)-9H-purin-9-yl)cyclohexanecarboxamide]	> 1000 nM
C[C@H](CO)Nc1ncc2nc(Nc3c(F)cc(Cl)cc3F)n([C@H]3CC[C@@H](C(N)=O)CC3)c2n1 [Example 132, (1S,4s)-4-(8-(4-chloro-2,6-difluorophenylamino)-2-((R)-1-hydroxypropan-2-ylamino)-9H-purin-9-yl)cyclohexanecarboxamide]	> 1000 nM
NC(=O)[C@H]1CC[C@@H](n2c(Nc3c(F)ccc(Cl)c3Cl)nc3cnc(NC4CCOCC4)nc32)CC1 [Example 104, (1s,4s)-4-(8-(2,3-dichloro-6-fluorophenylamino)-2-(tetrahydro-2H-pyran-4-ylamino)-9H-purin-9-yl)cyclohexanecarboxamide]	250 to 500 nM
NC(=O)[C@H]1CC[C@@H](n2c(Nc3c(Cl)cc(F)cc3Cl)nc3cnc(NC4CCCC4)nc32)CC1 [Example 121, (1s,4s)-4-(2-(cyclopentylamino)-8-(2,6-dichloro-4-fluorophenylamino)-9H-purin-9-yl)cyclohexanecarboxamide]	500 to 1000 nM
N#Cc1cc(F)c(Nc2nc3cnc(NC4CCC(F)(F)CC4)nc3n2[C@H]2CC[C@@H](C(N)=O)CC2)c(Cl)c1 [Example 378, (1s,4s)-4-(8-(2-chloro-4-cyano-6-fluorophenylamino)-2-(4,4-difluorocyclohexylamino)-9H-purin-9-yl)cyclohexanecarboxamide]	250 to 500 nM
N#Cc1cc(Cl)c(Nc2nc3cnc(NC4CCC(F)(F)CC4)nc3n2[C@H]2CC[C@@H](C(N)=O)CC2)c(Cl)c1 [Example 397, (1s,4s)-4-(8-(2,6-dichloro-4-cyanophenylamino)-2-(4,4-difluorocyclohexylamino)-9H-purin-9-yl)cyclohexanecarboxamide]	< 250 nM
NC(=O)[C@H]1CC[C@@H](n2c(Nc3c(F)cccc3Cl)nc3cnc(NC4CCN(c5ccccc5)CC4)nc32)CC1 [Example 108, (1s,4s)-4-(8-(2-chloro-6-fluorophenylamino)-2-(1-phenylpiperidin-4-ylamino)-9H-purin-9-yl)cyclohexanecarboxamide]	> 1000 nM
Cc1ccc(Nc2nc3cnc(NC4CCOCC4)nc3n2[C@H]2CC[C@@H](C(N)=O)CC2)c(Cl)c1F [Example 84, (1s,4s)-4-(8-(2-chloro-3-fluoro-4-methylphenylamino)-2-(tetrahydro-2H-pyran-4-ylamino)-9H-purin-9-yl)cyclohexanecarboxamide]	500 to 1000 nM
NC(=O)[C@H]1CC[C@@H](n2c(Nc3c(F)cccc3F)nc3cnc(N[C@@H]4CCC[C@H]4O)nc32)CC1 [Example 251, (1S,4s)-4-(8-(2,6-difluorophenylamino)-2-((1R,2R)-2-hydroxycyclopentylamino)-9H-purin-9-yl)cyclohexanecarboxamide]	> 1000 nM

Same assay, conditions: Homo sapiens; Lox-IMVI anti-proliferative assay, IC50 activity level; read-out: Activity

Molecule	IC50
CC[C@@H](CO)Nc1ncc2nc(Nc3c(Cl)cc(C#N)cc3Cl)n([C@H]3CC[C@@H](C(N)=O)CC3)c2n1 [Example 432, (1R,4s)-4-(8-(2,6-dichloro-4-cyanophenylamino)-2-((S)-1-hydroxybutan-2-ylamino)-9H-purin-9-yl)cyclohexanecarboxamide]	500 to 1000 nM
NC(=O)[C@H]1CC[C@@H](n2c(Nc3c(Cl)cc(Cl)cc3Cl)nc3cnc(N[C@@H]4CCCC[C@H](O)C4)nc32)CC1 [Example 439, (1S,4s)-4-(2-((1R,3S)-3-hydroxycycloheptylamino)-8-(2,4,6-trichlorophenylamino)-9H-purin-9-yl)cyclohexanecarboxamide]	> 1000 nM
NC(=O)[C@H]1CC[C@@H](n2c(Nc3c(F)cc(Cl)cc3F)nc3cnc(N[C@@H]4CCO[C@H](CO)C4)nc32)CC1 [Example 445, (1S,4s)-4-(8-(4-chloro-2,6-difluorophenylamino)-2-((2S,4R)-2-(hydroxymethyl)tetrahydro-2H-pyran-4-ylamino)-9H-purin-9-yl)cyclohexanecarboxamide]	250 to 500 nM
C[C@]1(C(N)=O)CC[C@@H](n2c(Nc3c(Cl)cc(C(F)(F)F)cc3Cl)nc3cnc(NC4CCCC4)nc32)CC1 [Example 562, (1s,4s)-4-(2-(cyclopentylamino)-8-(2,6-dichloro-4-(trifluoromethyl)phenylamino)-9H-purin-9-yl)-1-methylcyclohexanecarboxamide]	> 1000 nM
NC(=O)[C@H]1CC[C@@H](n2c(Nc3ccc(Cl)c(F)c3F)nc3cnc(N[C@H]4CCC[C@H](O)C4)nc32)CC1 [Example 463, (1R,4s)-4-(8-(4-chloro-2,3-difluorophenylamino)-2-((1S,3S)-3-hydroxycyclohexylamino)-9H-purin-9-yl)cyclohexanecarboxamide]	> 1000 nM
C[C@]1(C(N)=O)CC[C@@H](n2c(Nc3c(Cl)cc(C(F)(F)F)cc3Cl)nc3cnc(NC4CC(F)(F)C4)nc32)CC1 [Example 584, (1s,4s)-4-(8-(2,6-dichloro-4-(trifluoromethyl)phenylamino)-2-(3,3-difluorocyclobutylamino)-9H-purin-9-yl)-1-methylcyclohexanecarboxamide]	> 1000 nM
NC(=O)[C@H]1CC[C@@H](n2c(Nc3c(F)cc(F)cc3Cl)nc3cnc(N[C@@H]4CCCC[C@H](O)C4)nc32)CC1 [Example 437, (1S,4s)-4-(8-(2-chloro-4,6-difluorophenylamino)-2-((1R,3S)-3-hydroxycycloheptylamino)-9H-purin-9-yl)cyclohexanecarboxamide]	> 1000 nM
NC(=O)[C@H]1CC[C@@H](n2c(Nc3cc(F)c(Cl)cc3F)nc3cnc(N[C@H]4CCC[C@H](O)C4)nc32)CC1 [Example 465, (1R,4s)-4-(8-(4-chloro-2,5-difluorophenylamino)-2-((1S,3S)-3-hydroxycyclohexylamino)-9H-purin-9-yl)cyclohexanecarboxamide]	> 1000 nM
C[C@]1(O)CCC[C@@H](Nc2ncc3nc(Nc4c(Cl)cc(F)cc4Cl)n([C@H]4CC[C@@H](C(N)=O)CC4)c3n2)C1 [Example 428, (1S,4s)-4-(8-(2,6-dichloro-4-fluorophenylamino)-2-((1R,3S)-3-hydroxy-3-methylcyclohexylamino)-9H-purin-9-yl)cyclohexanecarboxamide]	> 1000 nM
C[C@]1(C(N)=O)CC[C@@H](n2c(Nc3c(Cl)cc(F)cc3Cl)nc3cnc(NC4CCC(F)(F)CC4)nc32)CC1 [Example 526, (1s,4s)-4-(8-(2,6-dichloro-4-fluorophenylamino)-2-(4,4-difluorocyclohexylamino)-9H-purin-9-yl)-1-methylcyclohexanecarboxamide]	< 250 nM
NC(=O)[C@H]1CC[C@@H](n2c(Nc3c(F)cccc3F)nc3cnc(N[C@@H]4CCC[C@@H](O)C4)nc32)CC1 [Example 419, (1S,4s)-4-(8-(2,6-difluorophenylamino)-2-((1R,3R)-3-hydroxycyclohexylamino)-9H-purin-9-yl)cyclohexanecarboxamide]	> 1000 nM

Same assay, conditions: Homo sapiens; Lox-IMVI melanoma cell line, anti-proliferative assay; read-out: Activity (IC50 activity level)

Molecule	IC50
C[C@]1(C(N)=O)CC[C@@H](n2c(Nc3c(F)cc(F)cc3Cl)nc3cnc(NC4CCOCC4)nc32)CC1 [Example 673, (1s,4s)-4-(8-(2-chloro-4,6-difluorophenylamino)-2-(tetrahydro-2H-pyran-4-ylamino)-9H-purin-9-yl)-1-methylcyclohexanecarboxamide]	< 250 nM
NC(=O)[C@H]1CC[C@@H](n2c(Nc3c(Cl)cc(Cl)cc3Cl)nc3cnc(NC4CCC(c5ncno5)CC4)nc32)CC1 (stereo partly shown) [Example 678, (1s,4s)-4-(2-(4-(1,2,4-oxadiazol-5-yl)cyclohexylamino)-8-(2,4,6-trichlorophenylamino)-9H-purin-9-yl)cyclohexanecarboxamide]	> 1000 nM
C[C@]1(C(N)=O)CC[C@@H](n2c(Nc3c(F)cc(Cl)cc3Cl)nc3cnc(NC4CCOCC4)nc32)CC1 [Example 674, (1s,4s)-4-(8-(2,4-dichloro-6-fluorophenylamino)-2-(tetrahydro-2H-pyran-4-ylamino)-9H-purin-9-yl)-1-methylcyclohexanecarboxamide]	< 250 nM

Same assay, conditions: Lox-IMVI melanoma cell line, anti-proliferative assay; read-out: Activity (IC50 activity level)

Molecule	IC50
(R)-isopropyl 3-(9-((1s,4S)-4- carbamoylcyclohexyl)-8-(2-chloro-4- cyano-6-fluorophenylamino)-9H-purin- 2-ylamino)piperidine-1-carboxylate [Example 776]	500 to 1000 nM
